≈ marks a conversion by molar mass, not a printed value.
Legend:
Mushroom tyrosinase = Mushroom tyrosinase (Agaricus bisporus, UniProt O42713+Q00024+C7FF04+C7FF05); assay: Inhibition of mushroom tyrosinase using L-DOPA as substrate by spectrophotometric analysis; type: protein assay
Salmonella typhimurium = assay: Antibacterial activity against Salmonella typhimurium DT104 assessed as reduction in bacterial growth inhibition; type: functional, Salmonella enterica subsp. enterica serovar Typhimurium
Escherichia coli [1] = assay: Antibacterial activity against Escherichia coli assessed as reduction in bacterial growth inhibition; type: functional
Salmonella enteritidis = assay: Antibacterial activity against Salmonella enterica subsp. enterica serovar Enteritidis assessed as reduction in bacterial growth inhibition; type: functional
Clostridium perfringens [2] = assay: Antibacterial activity against Clostridium perfringens assessed as reduction in bacterial growth inhibition; type: functional
Escherichia coli [3] = assay: microbe, parasite or virus in culture; details: ATCC 25922, 24 h
Acetylcholinesterase [4] = target: T1, Acetylcholinesterase (Homo sapiens, UniProt P22303); assay: Inhibition of AChE (unknown origin) using acetylthiocholine iodide as substrate by Ellman's method
T1 sequence (P22303 whole entry): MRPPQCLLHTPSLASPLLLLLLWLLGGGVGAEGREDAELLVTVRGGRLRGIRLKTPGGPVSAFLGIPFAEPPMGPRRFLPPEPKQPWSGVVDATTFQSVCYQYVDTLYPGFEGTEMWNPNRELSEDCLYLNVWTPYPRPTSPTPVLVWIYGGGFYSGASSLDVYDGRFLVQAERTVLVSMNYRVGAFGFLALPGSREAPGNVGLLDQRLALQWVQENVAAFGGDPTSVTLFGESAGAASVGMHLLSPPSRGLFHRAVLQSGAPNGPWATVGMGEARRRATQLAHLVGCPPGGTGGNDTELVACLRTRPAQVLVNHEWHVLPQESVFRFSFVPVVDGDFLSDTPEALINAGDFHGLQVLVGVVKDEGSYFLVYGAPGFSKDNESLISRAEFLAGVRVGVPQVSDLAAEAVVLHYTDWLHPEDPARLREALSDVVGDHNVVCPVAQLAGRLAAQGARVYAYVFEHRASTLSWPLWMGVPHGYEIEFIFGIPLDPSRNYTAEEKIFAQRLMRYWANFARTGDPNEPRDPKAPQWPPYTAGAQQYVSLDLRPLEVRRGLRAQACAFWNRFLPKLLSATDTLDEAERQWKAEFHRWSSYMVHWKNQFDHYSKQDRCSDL

Acetylcholinesterase [5] = target: T1, Acetylcholinesterase; assay: Inhibition of AChE (unknown origin)
Cholinesterase = Cholinesterase (Homo sapiens, UniProt P06276); assay: Inhibition of human BChE using butyrylthiocholine iodide as substrate incubated for 15 mins by spectrophotometric Ellman's method
Sequence of Cholinesterase (P06276 whole entry): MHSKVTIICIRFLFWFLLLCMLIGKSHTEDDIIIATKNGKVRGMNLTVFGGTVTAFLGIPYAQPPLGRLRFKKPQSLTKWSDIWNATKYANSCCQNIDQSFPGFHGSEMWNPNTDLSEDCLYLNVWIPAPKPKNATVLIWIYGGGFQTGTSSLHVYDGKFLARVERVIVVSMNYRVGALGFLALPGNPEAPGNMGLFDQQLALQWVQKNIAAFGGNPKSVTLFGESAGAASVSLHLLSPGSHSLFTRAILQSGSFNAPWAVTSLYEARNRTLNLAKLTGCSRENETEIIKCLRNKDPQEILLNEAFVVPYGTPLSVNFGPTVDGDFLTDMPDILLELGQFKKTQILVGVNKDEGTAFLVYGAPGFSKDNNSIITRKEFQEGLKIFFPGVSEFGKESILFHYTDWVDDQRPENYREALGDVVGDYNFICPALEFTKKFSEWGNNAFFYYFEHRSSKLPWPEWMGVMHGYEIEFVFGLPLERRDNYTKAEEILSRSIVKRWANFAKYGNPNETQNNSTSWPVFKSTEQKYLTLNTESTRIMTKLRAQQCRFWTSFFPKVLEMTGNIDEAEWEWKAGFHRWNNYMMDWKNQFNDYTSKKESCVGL

Helicobacter pylori = assay: Antibacterial activity against Helicobacter pylori assessed as reduction in bacterial growth incubated for 24 hrs by broth micro-dilution method; type: functional
Escherichia coli [6] = assay: Antibacterial activity against Escherichia coli ATCC 25922 assessed as zone of inhibition incubated for 24 hrs by agar diffusion method; type: functional
Escherichia coli [7] = assay: Antibacterial activity against Escherichia coli assessed as reduction in bacterial growth incubated for 24 hrs by Mueller-Hinton agar based analysis; type: functional
[8] = test system: Staphylococcus epidermidis; assay: Antimicrobial activity against Staphylococcus epidermidis ATCC 12228 assessed as reduction in bacterial growth incubated for 24 hrs by Mueller-Hinton agar based analysis; type: functional
Pseudomonas aeruginosa [9] = assay: Antibacterial activity against Pseudomonas aeruginosa ATCC 15442 assessed as reduction in bacterial growth incubated for 24 hrs by Mueller-Hinton agar based analysis; type: functional
Staphylococcus aureus = assay: Antimicrobial activity against Staphylococcus aureus […] assessed as reduction in bacterial growth incubated for 24 hrs by Mueller-Hinton agar based analysis; type: functional
Bacillus subtilis = assay: Antibacterial activity against Bacillus subtilis assessed as zone of inhibition; type: functional
Proteus vulgaris = assay: Antimicrobial activity against Proteus vulgaris NCIM 2813 assessed as zone of inhibition incubated for 24 hrs by agar diffusion method; type: functional
MIA PaCa-2 = assay: Growth inhibition of human MIA PaCa-2 cells measured for 48 hrs by SRB assay; type: functional
Phytophthora capsici = assay: Antifungal activity against Phytophthora capsici; type: functional, organism-based
Pseudomonas aeruginosa [10] = assay: Antibacterial activity against Pseudomonas aeruginosa ATCC 27853 assessed as bacterial growth inhibition measured after 18 hrs by CLSI protocol based two-fold serial microdilution method; type: functional
Clostridium perfringens [11] = assay: Antibacterial activity against Clostridium perfringens assessed as inhibition of bacterial growth incubated for 18 hrs by CLSI protocol based microbroth dilution method; type: functional
Clostridium perfringens [12] = assay: Antibacterial activity against Clostridium perfringens assessed as bacterial growth inhibition after 24 hrs by microdilution method; type: functional
[13] = Antioxidant activity assessed as DPPH radical scavenging activity incubated for 20 mins by spectrophotometric method; type: functional

`Cc1ccc(C(C)C)cc1OC(=O)COC(=O)/C=C/c1ccc(O)cc1` gave an IC50 (Mushroom tyrosinase) of 6500 nM.

Compound `Cc1cc(S(=O)(=O)O)c(C(C)C)cc1O` has an MIC (Salmonella typhimurium) of 0.75 %v/v, an MIC (Escherichia coli [1]) of 0.75 %v/v and an MIC (Salmonella enteritidis) of 0.37 %v/v. For the same compound, the MIC (Clostridium perfringens [2]) was 0.37 %v/v.

In the case of `Cc1ccc(C(C)C)cc1OC(=O)CC(C)C`, the MIC (Escherichia coli [3]) is reported as 11.7 µg/mL (≈ 49.9 µM).

Compound `Cc1ccc(C(C)C)cc1OCC(O)CNCc1cccnc1` (centres undefined) has an IC50 (Acetylcholinesterase [4]) of 136 nM.

Compound `Cc1ccc(C(C)C)cc1OCC(=O)NC1CCCCC1` has an IC50 (Acetylcholinesterase [5]) of 1930 nM and an IC50 (Cholinesterase) of 50 nM.

`Cc1cccc(COc2cc(C(C)C)ccc2C)c1` gave an MIC (Helicobacter pylori) of 2 µg/mL (≈ 7.86 µM).

With `Cc1ccc(C(C)C)cc1OCC(=O)NNS(=O)(=O)c1ccc(Cl)cc1` the “inhibition zone (IZ)” value (Escherichia coli [6]) was 10 mm.

In the case of `C=CCSC[C@H](NC(C)=O)C(=O)Oc1cc(C(C)C)ccc1C`, the MIC (Escherichia coli [7]) is reported as 2.5 µg/mL (≈ 7.45 µM), the MIC [8] is reported as 2.5 µg/mL (≈ 7.45 µM) and the MIC (Pseudomonas aeruginosa [9]) is reported as 5 µg/mL (≈ 14.9 µM). For the same compound, the MIC (Staphylococcus aureus) was 2.5 µg/mL (≈ 7.45 µM).

In the case of `CCCCCCCCCCCC(=O)Oc1cc(C(C)C)ccc1C`, the MIC (Salmonella typhimurium) is reported as greater than 10 %v/v, the MIC (Escherichia coli [1]) is reported as greater than 10 %v/v and the MIC (Salmonella enteritidis) is reported as greater than 10 %v/v. It also gave an MIC (Clostridium perfringens [2]) of less than 10 %v/v.

For `C[Se]CC[C@H](NC(C)=O)C(=O)Oc1cc(C(C)C)ccc1C`, the MIC (Escherichia coli [7]) was 5 µg/mL (≈ 13.5 µM), the MIC [8] was 5 µg/mL (≈ 13.5 µM) and the MIC (Pseudomonas aeruginosa [9]) was 5 µg/mL (≈ 13.5 µM). It also gave an MIC (Staphylococcus aureus) of 10 µg/mL (≈ 27 µM).

With `Cc1ccc(C(C)C)cc1OC(=O)COC(=O)c1ccc(O)cc1O` the IC50 (Mushroom tyrosinase) was 6700 nM.

With `CCCCCCCNC(=O)COc1cc(C(C)C)ccc1C` the “inhibition zone (IZ)” value (Bacillus subtilis) was 6 mm and the “inhibition zone (IZ)” value (Proteus vulgaris) was 7 mm.

In the case of `Cc1ccc(C(C)C)cc1OC(=O)[C@@H]1CSCN1C(=O)C(F)(F)F`, the MIC (Escherichia coli [7]) is reported as 5 µg/mL (≈ 13.8 µM), the MIC [8] is reported as 2.5 µg/mL (≈ 6.92 µM) and the MIC (Pseudomonas aeruginosa [9]) is reported as 10 µg/mL (≈ 27.7 µM). It also gave an MIC (Staphylococcus aureus) of 5 µg/mL (≈ 13.8 µM).

For `Cc1ccc(C(C)C)cc1OCC(=O)NNS(=O)(=O)c1cccc(C(F)(F)F)c1`, the “inhibition zone (IZ)” value (Escherichia coli [6]) was 10 mm.

Compound `Cc1ccc(C(C)C)cc1OC(=O)CCCC[C@@H]1CCSS1` has an MIC (Escherichia coli [7]) of 5 µg/mL (≈ 14.8 µM), an MIC [8] of 10 µg/mL (≈ 29.5 µM) and an MIC (Pseudomonas aeruginosa [9]) of 5 µg/mL (≈ 14.8 µM). For the same compound, the MIC (Staphylococcus aureus) was 10 µg/mL (≈ 29.5 µM).

`Cc1ccc(C(C)C)cc1OCC(O)CNCCC1=CCCCC1` (centres undefined) gave an IC50 (Acetylcholinesterase [4]) of 136 nM.

For `C#CCSC[C@H](NC(C)=O)C(=O)Oc1cc(C(C)C)ccc1C`, the MIC (Escherichia coli [7]) was 10 µg/mL (≈ 30 µM), the MIC [8] was 5 µg/mL (≈ 15 µM) and the MIC (Pseudomonas aeruginosa [9]) was 10 µg/mL (≈ 30 µM). For the same compound, the MIC (Staphylococcus aureus) was 10 µg/mL (≈ 30 µM).

With `Cc1ccc(C(C)C)cc1OCC(=O)Nc1ccccc1` the “inhibition zone (IZ)” value (Bacillus subtilis) was 8 mm.

`C=CCNCC(O)COc1cc(C(C)C)ccc1C` (centres undefined) showed an IC50 (Acetylcholinesterase [4]) of 136 nM.

In the case of `Cc1ccc(C(C)C)cc1OCC(=O)N1Cc2ccccc2C1`, the IC50 (Acetylcholinesterase [5]) is reported as 1930 nM and the IC50 (Cholinesterase) is reported as 50 nM.

Work on `Cc1ccc(C(C)C)c(/C=N/Nc2ccc(Cl)nn2)c1O` yielded a GI50 (MIA PaCa-2) of 80 µg/mL (≈ 262 µM).

With `Cc1ccc(C(C)C)cc1OS(=O)(=O)c1cccs1` the EC50 (Phytophthora capsici) was 0.06124 µg/mL (≈ 0.207 µM).

For `CC(=O)Oc1cc(C(C)C)ccc1C`, the MIC (Escherichia coli [3]) was 11.7 µg/mL (≈ 60.9 µM).

With `Cc1ccc(C(C)C)cc1OC(=O)COC(=O)/C=C/c1ccccc1` the IC50 (Mushroom tyrosinase) was 7700 nM.

`Cc1ccc(C(C)C)cc1OC(=O)COC(=O)/C=C/c1ccc(Cl)cc1` gave an IC50 (Mushroom tyrosinase) of 6700 nM.

In the case of `CCCNC(=O)COc1cc(C(C)C)ccc1C`, the IC50 (Acetylcholinesterase [5]) is reported as 1930 nM and the IC50 (Cholinesterase) is reported as 50 nM.

Compound `COc1ccc(CCNC(=O)COc2cc(C(C)C)ccc2C)cc1OC` has an IC50 (Acetylcholinesterase [5]) of 1930 nM and an IC50 (Cholinesterase) of 50 nM.

For `Cc1ccc(S(=O)(=O)N/N=C/c2c(C(C)C)ccc(C)c2O)cc1`, the GI50 (MIA PaCa-2) was 10 µg/mL (≈ 28.9 µM).

Compound `Cc1ccc(C(C)C)cc1OCC(O)CNC(C)(C)C` (centres undefined) has an IC50 (Acetylcholinesterase [4]) of 136 nM.

`Cc1ccc(C(C)C)cc1OCC(=O)N1CCCCC1` gave an IC50 (Acetylcholinesterase [5]) of 1930 nM and an IC50 (Cholinesterase) of 50 nM.

For `C=CCOc1cc(C(C)C)ccc1C`, the MIC (Pseudomonas aeruginosa [10]) was 110 µg/mL (≈ 578 µM) and the MIC (Clostridium perfringens [11]) was 110 µg/mL (≈ 578 µM).

`Cc1ccc(C(C)C)cc1OC(=O)Cc1ccccc1` showed an MIC (Escherichia coli [3]) of 11.7 µg/mL (≈ 43.6 µM).

`Cc1ccc(C(C)C)cc1OCCn1c([N+](=O)[O-])cnc1C` showed an MIC (Clostridium perfringens [12]) of 1 µg/mL (≈ 3.3 µM).

`Cc1cc(CO)c(C(C)C)cc1O` gave an IC50 [13] of 156 µg/mL (≈ 865 µM).

`CCC(=O)Oc1cc(C(C)C)ccc1C` gave an MIC (Escherichia coli [3]) of 11.7 µg/mL (≈ 56.7 µM).

`Cc1ccc(C(C)C)c(/C=N/c2c(C(C)C)ccc(C)c2O)c1O` showed a GI50 (MIA PaCa-2) of 16.9 µg/mL (≈ 51.9 µM).

— ChEMBL document CHEMBL5576070, “The recent discovery of a promising pharmacological scaffold derived from carvacrol: A review” (Bioorg Med Chem Lett, 2024)
